Measured values taken from patent US9944618B2, “Inhibiting neurotransmitter reuptake” (Mayo Foundation for Medical Education and Research, priority 2013, dated 2018).
Read-outs that look alike come from different tables or passages of the source.

Key:
[1] = target: human serotonin transporter (Homo sapiens (Human), UniProt P31645); experiment: Human SERT (serotonin transporter) uptake assay; assay type: cell-based; details: read-out: hSERT Ki
In short: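 HEK293F cells transfected with human SERT, about 60,000 per well, settled for ≥3 h at 37° C before compound addition. Uptake was followed with a fluorescent transporter dye in HBSS with 0.02 M HEPES. Background came from 10 μM fluoxetine, nomifensine was the control, n=3.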

hERG = hERG (Homo sapiens (Human), UniProt Q12809); experiment: Human ERG (hERG) assay, hERG currents in hERG-expressing CHO cells; assay type: cell-based; details: hERG-expressing CHO cells
hERG, sequence (Q12809 whole entry): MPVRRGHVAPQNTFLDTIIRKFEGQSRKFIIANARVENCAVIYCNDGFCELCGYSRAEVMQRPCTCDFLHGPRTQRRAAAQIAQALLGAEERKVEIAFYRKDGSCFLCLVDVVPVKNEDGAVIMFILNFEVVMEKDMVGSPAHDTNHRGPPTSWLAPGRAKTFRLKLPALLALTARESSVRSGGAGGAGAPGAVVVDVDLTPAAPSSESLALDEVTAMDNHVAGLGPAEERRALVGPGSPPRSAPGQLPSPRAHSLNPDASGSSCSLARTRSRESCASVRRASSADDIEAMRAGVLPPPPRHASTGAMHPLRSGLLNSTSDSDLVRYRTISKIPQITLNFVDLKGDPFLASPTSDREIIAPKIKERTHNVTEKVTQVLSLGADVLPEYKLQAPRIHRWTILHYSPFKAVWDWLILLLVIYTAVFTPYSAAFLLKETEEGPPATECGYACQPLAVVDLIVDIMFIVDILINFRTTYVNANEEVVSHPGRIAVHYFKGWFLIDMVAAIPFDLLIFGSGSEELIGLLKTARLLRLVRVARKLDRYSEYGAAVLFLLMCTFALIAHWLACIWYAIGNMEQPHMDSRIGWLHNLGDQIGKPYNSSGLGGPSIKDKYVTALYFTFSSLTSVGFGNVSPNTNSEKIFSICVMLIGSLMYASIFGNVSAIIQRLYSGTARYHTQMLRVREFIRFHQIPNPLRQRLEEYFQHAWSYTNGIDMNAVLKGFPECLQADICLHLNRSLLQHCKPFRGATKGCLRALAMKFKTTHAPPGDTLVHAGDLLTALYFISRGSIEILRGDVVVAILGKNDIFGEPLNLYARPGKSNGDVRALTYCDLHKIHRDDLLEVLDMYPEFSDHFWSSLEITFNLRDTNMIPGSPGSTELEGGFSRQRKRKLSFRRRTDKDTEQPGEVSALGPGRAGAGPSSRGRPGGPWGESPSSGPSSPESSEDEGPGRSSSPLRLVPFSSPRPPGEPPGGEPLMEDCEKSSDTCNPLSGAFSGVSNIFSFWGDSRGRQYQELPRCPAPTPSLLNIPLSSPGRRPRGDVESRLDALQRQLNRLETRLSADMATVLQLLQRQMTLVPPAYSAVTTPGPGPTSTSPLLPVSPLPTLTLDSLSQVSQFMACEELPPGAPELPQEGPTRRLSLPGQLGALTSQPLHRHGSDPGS

[2] = target: human norepinephrine transporter (Homo sapiens (Human), UniProt P23975); experiment: Human NET (norepinephrine transporter) uptake assay; assay type: cell-based; details: read-out: hNET Ki
human norepinephrine transporter, sequence (P23975 whole entry): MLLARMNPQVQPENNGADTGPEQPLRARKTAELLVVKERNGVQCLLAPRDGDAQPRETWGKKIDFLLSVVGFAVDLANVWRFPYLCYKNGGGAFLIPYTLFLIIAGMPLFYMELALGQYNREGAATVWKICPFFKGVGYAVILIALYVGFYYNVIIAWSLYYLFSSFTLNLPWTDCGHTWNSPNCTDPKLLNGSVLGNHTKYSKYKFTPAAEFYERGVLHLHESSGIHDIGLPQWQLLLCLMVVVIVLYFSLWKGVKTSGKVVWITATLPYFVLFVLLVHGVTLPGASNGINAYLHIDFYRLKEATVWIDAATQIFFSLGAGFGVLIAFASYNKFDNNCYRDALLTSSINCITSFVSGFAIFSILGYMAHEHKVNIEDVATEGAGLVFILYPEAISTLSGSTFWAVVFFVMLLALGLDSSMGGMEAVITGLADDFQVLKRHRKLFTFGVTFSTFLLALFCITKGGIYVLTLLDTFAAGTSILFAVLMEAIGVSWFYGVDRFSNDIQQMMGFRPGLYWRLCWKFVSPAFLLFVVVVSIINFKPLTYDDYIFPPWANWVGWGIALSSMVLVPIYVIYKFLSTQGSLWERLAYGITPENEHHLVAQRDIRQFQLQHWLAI
In short: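 HEK293F cells transfected with human NET were thawed, plated at about 60,000 cells/well and held at 37 °C for at least 3 h. Compounds came from 10 mM DMSO stocks, with nomifensine as control, in 1×HBSS/0.02 M HEPES. Uptake was followed with a neurotransmitter transporter dye, dosed as % of vendor reconstitution, in triplicate.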

[3] = target: human dopamine transporter (Homo sapiens (Human), UniProt Q01959); experiment: Human DAT (dopamine transporter) uptake assay; assay type: cell-based; details: read-out: hDAT Ki
human dopamine transporter, sequence (Q01959 whole entry): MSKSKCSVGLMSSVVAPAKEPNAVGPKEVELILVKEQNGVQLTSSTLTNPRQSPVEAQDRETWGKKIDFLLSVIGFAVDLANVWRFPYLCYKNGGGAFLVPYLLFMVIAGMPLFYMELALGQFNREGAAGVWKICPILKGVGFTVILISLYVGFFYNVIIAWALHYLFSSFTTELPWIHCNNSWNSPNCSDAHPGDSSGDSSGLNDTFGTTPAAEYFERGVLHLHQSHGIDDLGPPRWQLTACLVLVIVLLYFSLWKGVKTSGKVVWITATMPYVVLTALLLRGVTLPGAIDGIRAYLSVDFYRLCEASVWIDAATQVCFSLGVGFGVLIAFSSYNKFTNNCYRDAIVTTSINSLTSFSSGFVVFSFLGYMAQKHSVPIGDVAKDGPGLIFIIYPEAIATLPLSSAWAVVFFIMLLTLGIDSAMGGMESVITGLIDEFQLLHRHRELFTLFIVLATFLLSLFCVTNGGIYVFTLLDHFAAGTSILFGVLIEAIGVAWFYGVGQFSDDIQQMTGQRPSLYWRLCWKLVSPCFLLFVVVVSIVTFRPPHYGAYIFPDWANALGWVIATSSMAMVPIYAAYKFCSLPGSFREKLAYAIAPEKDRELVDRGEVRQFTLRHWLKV
In short: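 Uptake inhibition was measured in HEK293F cells transfected with human DAT, plated at ~60,000 cells/well and settled ≥3 h at 37 °C. Compounds came from 10 mM DMSO stocks. Read-out was uptake of a fluorescent neurotransmitter transporter dye in HBSS with 0.02 M HEPES, with dye level given as % of vendor reconstitution; n=3.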

CYP2D6 = CYP2D6 (Homo sapiens (Human), UniProt P10635); experiment: Cytochrome P450 inhibition assay, recombinant CYP2D6 (MAMC substrate); assay type: in vitro ADME; details: recombinant enzyme
CYP2D6, sequence (P10635 whole entry): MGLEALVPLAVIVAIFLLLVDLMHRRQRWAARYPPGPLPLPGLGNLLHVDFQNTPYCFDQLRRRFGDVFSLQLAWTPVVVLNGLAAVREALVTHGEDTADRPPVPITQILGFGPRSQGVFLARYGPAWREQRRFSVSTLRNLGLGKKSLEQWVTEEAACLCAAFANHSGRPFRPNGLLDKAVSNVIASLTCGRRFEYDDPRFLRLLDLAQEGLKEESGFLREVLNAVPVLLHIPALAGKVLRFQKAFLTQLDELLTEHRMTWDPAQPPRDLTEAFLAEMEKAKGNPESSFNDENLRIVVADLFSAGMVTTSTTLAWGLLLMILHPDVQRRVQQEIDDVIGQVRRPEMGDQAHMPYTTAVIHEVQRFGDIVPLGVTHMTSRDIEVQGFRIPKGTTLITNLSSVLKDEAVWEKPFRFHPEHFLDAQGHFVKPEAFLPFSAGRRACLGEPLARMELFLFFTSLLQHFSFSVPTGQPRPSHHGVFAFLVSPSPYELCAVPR
Method: (§1) Recombinant enzymes, 3A4 and 2D6, generated using the ABL yeast expression system were used. […] The assay mixture also included K2HPO4 (pH 7.4; conc. 0.1 M) and NADPH (conc. 1 mM). The incubation time was 30 minutes, and the reference inhibitor was A-naphthoflavone. For CYP2D6, the enzyme amount was 2 pmol per well, and the substrate (7-methoxy-4-(aminomethyl)-coumarin; MAMC) was used at 20 μM. The assay mixture also included K2HPO4 (pH 7.4; conc. 0.1 M) and NADPH (conc. 0.06 mM). The incubation time was 35 minutes, and the reference inhibitor was quinidine.
(§2) Briefly, 0.6 μL of serially diluted compound was added to 75 μL water. 10 μL of diluted compound in water was then added to each assay plate. 20 μL of a K2HPO4, enzyme, and substrate mixture was added. After 10 minutes of room temperature pre-incubation, 10 μL of NADPH was added, and the plates were placed at 37° C. for 30 or 35 minutes depending on the enzyme being tested. After the incubation was complete, 20 μL of 0.1% Tris/ACN was added to the plate. The plate was read on a FluorStar fluorescence plate reader.

[4] = pKa of basic centres (Table 1); assay type: physicochemical
CYP3A4 = CYP3A4 (Homo sapiens (Human), UniProt P08684); experiment: Cytochrome P450 inhibition assay, recombinant CYP3A4 (BFC substrate); assay type: in vitro ADME; details: recombinant enzyme
CYP3A4, sequence (P08684 whole entry): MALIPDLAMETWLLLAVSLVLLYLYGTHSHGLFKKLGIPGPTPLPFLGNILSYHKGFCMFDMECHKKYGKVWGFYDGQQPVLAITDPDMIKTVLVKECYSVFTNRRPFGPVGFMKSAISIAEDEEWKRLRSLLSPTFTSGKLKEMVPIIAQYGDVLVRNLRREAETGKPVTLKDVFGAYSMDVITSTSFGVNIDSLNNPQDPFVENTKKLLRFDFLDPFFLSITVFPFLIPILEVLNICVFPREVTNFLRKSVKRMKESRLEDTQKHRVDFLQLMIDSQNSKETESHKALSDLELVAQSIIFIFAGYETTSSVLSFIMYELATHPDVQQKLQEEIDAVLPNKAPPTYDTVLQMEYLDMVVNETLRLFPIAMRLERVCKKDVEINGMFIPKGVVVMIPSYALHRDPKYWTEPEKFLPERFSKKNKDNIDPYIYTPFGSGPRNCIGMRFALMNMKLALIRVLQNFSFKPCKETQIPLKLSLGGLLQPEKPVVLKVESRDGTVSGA
Method: as §1, §2

[5] = first base, e.g., an aliphatic primary, secondary, or tertiary amine, read-out: pKa (Base 1)
[6] = second base in the same molecule (if present), read-out: pKa (Base 2)
[7] = first base, e.g., an aliphatic primary, secondary, or tertiary amine

human serotonin transporter, sequence (P31645 whole entry): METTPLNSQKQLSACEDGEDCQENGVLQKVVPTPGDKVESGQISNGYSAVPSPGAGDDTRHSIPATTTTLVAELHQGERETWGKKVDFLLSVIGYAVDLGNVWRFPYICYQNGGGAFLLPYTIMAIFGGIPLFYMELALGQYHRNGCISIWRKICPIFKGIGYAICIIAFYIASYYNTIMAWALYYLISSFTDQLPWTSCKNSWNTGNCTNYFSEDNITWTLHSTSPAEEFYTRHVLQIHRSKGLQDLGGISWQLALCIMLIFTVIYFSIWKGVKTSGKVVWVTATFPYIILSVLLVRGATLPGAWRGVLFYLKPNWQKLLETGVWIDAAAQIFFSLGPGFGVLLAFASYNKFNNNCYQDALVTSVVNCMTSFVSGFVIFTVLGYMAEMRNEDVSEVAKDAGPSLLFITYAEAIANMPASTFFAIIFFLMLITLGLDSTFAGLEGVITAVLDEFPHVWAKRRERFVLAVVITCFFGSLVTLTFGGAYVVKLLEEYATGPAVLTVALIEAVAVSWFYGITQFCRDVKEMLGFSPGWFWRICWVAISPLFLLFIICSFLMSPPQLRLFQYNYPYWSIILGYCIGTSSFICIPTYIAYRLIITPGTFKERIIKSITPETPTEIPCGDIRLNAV

| Compound | Ki [1] | IC50 (hERG) | Ki [2] | Ki [3] | IC50 (CYP2D6) | pKa [4, 5] | IC50 (CYP3A4) | pKa [4, 6] | pKa (Base 1) [4, 7] |
| --- | --- | --- | --- | --- | --- | --- | --- | --- | --- |
| CNC[C@H](c1ccc(Cl)c(Cl)c1)[C@H](O)c1ccccc1I [Compound 164] | 0.0781 µM | 4.1 µM | 0.0416 µM | 0.113 µM | 0.25 µM | 9.4 | 5.3 µM | – | – |
| CNC[C@@H](c1ccc(Cl)c(Cl)c1)[C@@H](OC)c1cccc(NS(=O)(=O)C(F)(F)F)c1 [Compound 172] | 1.26 µM | 4.7 µM | 0.625 µM | 0.102 µM | 0.97 µM | 9.4 | 0.2 µM | – | – |
| CNC[C@@H](c1ccc2ccccc2c1)[C@@H](O)c1ccccc1F [Compound 78] | 0.0153 µM | 12 µM | 0.0143 µM | 0.0261 µM | 1.1 µM | 9.7 | 20 µM | – | – |
| CNCC(CCc1ccccc1)[C@H](O)c1ccccc1 (stereo partly shown) [Compound 66] | 0.0467 µM | 15 µM | 0.0081 µM | 0.0289 µM | 0.26 µM | 10.1 | 20 µM | – | – |
| CNC[C@H](c1ccc2ccccc2c1)[C@@H](F)c1ccccc1 [Compound 11] | 0.0042 µM | 11 µM | 0.0016 µM | 0.0111 µM | 0.096 µM | 9.4 | 6.7 µM | – | – |
| CNC[C@H](c1ccc(Cl)c(Cl)c1)[C@@H](O)c1ccccc1 [Compound 70] | 0.143 µM | 31 µM | 0.0095 µM | 0.0485 µM | 0.22 µM | 9.4 | 20 µM | – | – |
| CNC[C@H](c1ccc(Cl)c(Cl)c1)[C@@H](O)c1ccccc1-c1cccs1 [Compound 100] | 0.361 µM | 21 µM | 0.0438 µM | 0.0274 µM | 0.064 µM | 9.4 | 8.2 µM | – | – |
| CNC[C@H](c1ccc2ccccc2c1)[C@H](O)c1ccccc1F [Compound 15] | 0.0024 µM | 12 µM | 0.0017 µM | 0.0425 µM | 0.2 µM | 9.7 | 20 µM | – | – |
| CNC[C@H](c1ccc(Cl)c(Cl)c1)[C@H](O)c1ccccc1OC [Compound 160] | 0.0092 µM | 8 µM | 0.0091 µM | 0.0835 µM | 0.49 µM | 9.4 | 3.5 µM | – | – |
| CNC[C@@H](c1ccc2ccccc2c1)[C@H](O)c1ccccn1 [Compound 99] | 0.0432 µM | 33 µM | 0.041 µM | 0.287 µM | 3.6 µM | 9.6 | ≥ 20 µM | 4.1 | – |
| CNC[C@H](Cc1ccccc1O)c1ccc2ccccc2c1 [Compound 140] | 0.0283 µM | 6.1 µM | 0.0259 µM | 0.0916 µM | 0.86 µM | 10 | 20 µM | – | – |
| CNCC(c1ccc(Cl)c(Cl)c1)[C@H](O)c1ccccc1 (mixture of isomers) [Compound 53] | 0.0173 µM | 9.8 µM | 0.0045 µM | 0.0098 µM | 0.41 µM | 9.4 | ≥ 20 µM | – | – |
| CN(C)C[C@H](c1ccc2ccccc2c1)[C@H](O)c1cccs1 (racemic) [Compound 135] | 0.0214 µM | 3.1 µM | 0.0117 µM | 0.0581 µM | 0.91 µM | 8.9 | ≥ 20 µM | – | – |
| CNC[C@@H](Cc1ccccc1)c1ccc2ccccc2c1 [Compound 5] | 0.0028 µM | 6.5 µM | 0.0014 µM | 0.0101 µM | 0.24 µM | 10.1 | 18 µM | – | – |
| CN(C)C[C@H](c1ccc2ccccc2c1)[C@H](OCCO)c1ccccc1 [Compound 89] | 0.0018 µM | 6.6 µM | 0.0214 µM | 0.025 µM | 1.8 µM | 8.9 | 20 µM | – | – |
| CNC[C@H](c1ccc(Cl)c(Cl)c1)[C@H](O)c1cccc(Br)c1 [Compound 76] | 0.222 µM | 3 µM | 0.0119 µM | 0.0212 µM | 0.14 µM | 9.4 | 3.6 µM | – | – |
| CNC[C@H](c1ccc2ccccc2c1)[C@H](OCC(=O)N1CC[C@H](O)C1)c1ccccc1 [Compound 19] | 0.0043 µM | 33 µM | 0.0019 µM | 0.017 µM | 20 µM | 9.6 | 20 µM | – | – |
| CNC[C@H](c1ccc2ccccc2c1)[C@H](OCC(N)=O)c1ccccc1 [Compound 3] | 0.0006 µM | 33 µM | 0.0013 µM | 0.0052 µM | 1.3 µM | 9.6 | 20 µM | – | – |
| CNC[C@H](c1ccc(Cl)c(Cl)c1)[C@H](O)c1ccccc1SC [Compound 156] | 0.0224 µM | 4.1 µM | 0.0172 µM | 0.0485 µM | 0.17 µM | 9.4 | 9.5 µM | – | – |
| CNCC(Cc1ccccc1O)c1ccc2ccccc2c1 (stereo not shown) [Compound 69] | 0.0212 µM | 9.5 µM | 0.009 µM | 0.0219 µM | 0.51 µM | – | 20 µM | – | 10 |
| CNCC(Cc1cccnc1)c1ccc2ccccc2c1 (stereo not shown) [Compound 74] | 0.0136 µM | 20 µM | 0.0103 µM | 0.109 µM | 0.79 µM | – | 8.1 µM | 5.2 | 9.9 |
| CNC[C@H](c1ccc2ccccc2c1)[C@H](O)c1cncc(OC)c1 [Compound 92] | 0.0093 µM | 33 µM | 0.028 µM | 0.216 µM | 0.81 µM | 9.6 | 20 µM | 4.5 | – |
| CNC[C@@H](c1ccc2ccccc2c1)[C@H](O)c1ccccc1F [Compound 96] | 0.0099 µM | 33 µM | 0.0368 µM | 0.158 µM | 1.1 µM | 9.7 | 20 µM | – | – |
| CNC[C@H](c1ccc2ccccc2c1)[C@H](OCC(=O)NCCO)c1ccccc1 [Compound 14] | 0.0031 µM | 33 µM | 0.0016 µM | 0.0793 µM | 3.7 µM | 9.6 | 20 µM | – | – |
| CCc1ccccc1[C@@H](O)[C@H](CNC)c1ccc(Cl)c(Cl)c1 [Compound 158] | 0.0386 µM | 4.4 µM | 0.0063 µM | 0.0554 µM | 0.098 µM | 9.4 | 3.8 µM | – | – |
